Experimental data from BindingDB's records for patent US20250129027 (Apogee Pharmaceuticals, 2025).
pIC50: −log10 of the molar value.

The molecules below were run against T1, Monoglyceride lipase (Homo sapiens, UniProt Q99685) (assay: In Vitro Inhibition on FAAH and MAGL Activity Assay).
T1 sequence (Q99685 whole entry): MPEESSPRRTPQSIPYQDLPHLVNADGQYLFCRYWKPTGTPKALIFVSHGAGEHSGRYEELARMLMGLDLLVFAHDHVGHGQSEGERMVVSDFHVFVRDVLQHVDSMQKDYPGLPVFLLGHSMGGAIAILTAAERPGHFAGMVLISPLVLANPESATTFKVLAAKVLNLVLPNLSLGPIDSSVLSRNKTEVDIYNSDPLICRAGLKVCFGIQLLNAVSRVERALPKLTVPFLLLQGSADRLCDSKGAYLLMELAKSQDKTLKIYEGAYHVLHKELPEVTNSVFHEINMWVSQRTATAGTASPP
From the text: (§1) In brief, FAAH hydrolyzes AMC arachidonoyl amide resulting in the release of the fluorescent product, while the inhibitor will inhibit the FAAH activity and thus reduce the fluorescent signal. […] The absorbance of the yellow product can be analyzed using the plate reader.

SMILES | pIC50
CCCCCCCCCCCCCCNC(=O)Oc1cccc(-c2cncc(C(=O)NO)c2)c1 [US20250129027, Example 24] | < 5.00
CCCCCCCCNC(=O)Oc1cccc(-c2cncc(C(F)(F)F)c2)c1 [US20250129027, Example 30] | < 5.00
O=Cc1cncc(-c2cccc(OC(=O)NC3CCCCC3)c2)c1 [US20250129027, Example 19] | < 5.00
CN(C(=O)Oc1cccc(-c2cncc(-c3nnco3)c2)c1)C1CCCCCC1 [US20250129027, Example 144] | < 5.00
CCCCCCCNC(=O)Oc1ccc(O)c(-c2cncc(-c3nnco3)c2)c1 [US20250129027, Example 156] | < 4.70
COc1ccc(OC(=O)NC2CCCCC2)cc1-c1cncc(-c2nncs2)c1 [US20250129027, Example 217] | < 5.00
CCCCCCCNC(=O)Oc1ccc(OC)c(-c2cncc(-c3nnco3)c2)c1 [US20250129027, Example 166] | < 5.00
CCCCCCNC(=O)Oc1cccc(-c2cncc(-c3nnco3)c2)c1 [US20250129027, Example 128] | < 4.30
CCCCCNC(=O)Oc1cccc(-c2cncc(C(=O)OC)c2)c1 [US20250129027, Example 8] | < 5.00
CCCCCNC(=O)Oc1cccc(-c2cncc(C(=O)OCC)c2)c1 [US20250129027, Example 1] | < 5.00
CCCCCCCNC(=O)Oc1cccc(-c2cncc(C(=O)OC)c2)c1 [US20250129027, Example 9] | < 5.00
CCCCCCCCNC(=O)Oc1cccc(-c2cncc(C(=O)OC)c2)c1 [US20250129027, Example 10] | < 6.00
CCCCCCCCNC(=O)Oc1ccc(OC)c(-c2cncc(-c3cccs3)c2)c1 [US20250129027, Example 65] | 5.00
CN(C)c1ccc(OC(=O)NC2CCCC2)cc1-c1cncc(-c2nnco2)c1 [US20250129027, Example 183] | < 5.00
CCCCCCCCCCCCCCNC(=O)Oc1cccc(-c2cncc(-c3nnco3)c2)c1 [US20250129027, Example 132] | > 5.00
CCCCCCCCNC(=O)Oc1ccc(OC)c(-c2cncc(-c3nnco3)c2)c1 [US20250129027, Example 167] | < 5.00
CCCCCCCCNC(=O)Oc1cccc(-c2cncc(-c3ccco3)c2)c1 [US20250129027, Example 47] | 5.00
CCCCCCCCNC(=O)Oc1ccc(OC(F)(F)F)c(-c2cncc(-c3ncco3)c2)c1 [US20250129027, Example 88] | 5.00
CCCCCCCNC(=O)Oc1cccc(-c2cncc(C#N)c2)c1 [US20250129027, Example 26] | < 5.00
CCCCCCCCNC(=O)Oc1cccc(-c2cncc(C#N)c2)c1 [US20250129027, Example 27] | < 5.00
CCCCCCCCNC(=O)Oc1ccc(OC)c(-c2cncc(-c3ccc[nH]3)c2)c1 [US20250129027, Example 41] | < 5.00
CCCCCCCCNC(=O)Oc1cccc(-c2cncc(-c3nnco3)c2)c1 [US20250129027, Example 130] | < 5.00
CCCCCCCCNC(=O)Oc1ccc(O)c(-c2cncc(-c3nnco3)c2)c1 [US20250129027, Example 157] | < 5.00
CCCCCCCCNC(=O)Oc1cccc(-c2cncc(C(=O)OCC)c2)c1 [US20250129027, Example 3] | < 5.00
CCCCCCCCCCCCNC(=O)Oc1cccc(-c2cncc(-c3nnco3)c2)c1 [US20250129027, Example 131] | > 5.00

What follows are molecules tested against T2, Fatty-acid amide hydrolase 1 (Homo sapiens, UniProt O00519) in the same assay as above.
T2 sequence (O00519 whole entry): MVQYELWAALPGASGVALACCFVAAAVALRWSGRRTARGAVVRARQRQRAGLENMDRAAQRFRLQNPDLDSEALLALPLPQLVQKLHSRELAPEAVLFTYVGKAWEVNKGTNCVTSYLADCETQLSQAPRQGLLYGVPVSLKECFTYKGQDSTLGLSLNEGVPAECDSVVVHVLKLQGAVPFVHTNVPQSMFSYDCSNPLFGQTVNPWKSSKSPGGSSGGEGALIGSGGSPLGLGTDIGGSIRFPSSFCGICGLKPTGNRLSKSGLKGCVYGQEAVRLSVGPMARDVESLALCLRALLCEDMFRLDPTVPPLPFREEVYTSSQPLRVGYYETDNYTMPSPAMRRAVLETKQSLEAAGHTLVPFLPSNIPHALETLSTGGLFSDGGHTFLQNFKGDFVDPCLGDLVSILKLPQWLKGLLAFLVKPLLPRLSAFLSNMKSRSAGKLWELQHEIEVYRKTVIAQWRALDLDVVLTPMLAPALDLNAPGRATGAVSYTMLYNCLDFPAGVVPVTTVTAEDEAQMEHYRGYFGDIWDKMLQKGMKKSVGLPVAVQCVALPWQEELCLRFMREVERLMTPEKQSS
From the text: as §1

SMILES | pIC50
CCCCCCCCCCCCCCNC(=O)Oc1cccc(-c2cncc(C(=O)NO)c2)c1 [US20250129027, Example 24] | > 8.00
O=Cc1cncc(-c2cccc(OC(=O)NC3CCCCC3)c2)c1 [US20250129027, Example 19] | 6.00
CN(C(=O)Oc1cccc(-c2cncc(-c3nnco3)c2)c1)C1CCCCCC1 [US20250129027, Example 144] | < 6.00
CN(C)c1ccc(OC(=O)NC2CCCC2)cc1-c1cncc(-c2nnco2)c1 [US20250129027, Example 183] | < 6.00
CCCCCCCCCCCCCCNC(=O)Oc1cccc(-c2cncc(-c3nnco3)c2)c1 [US20250129027, Example 132] | > 7.70
